The record followed here is PMC5218480 (PLoS ONE, 2017).

For this experiment, the system named is MV-4-11 cells. Nature of the experiment: Gene expression microarray analysis (Affymetrix PrimeView) and GSEA. The experiment is classed as cell-based, human. Further details: RFU PODN (11730768_x_at) / Fold change /veh PODN (11730768_x_at) / RFU LINC00158 (11744669_a_at) / Fold change /veh LINC00158 (11744669_a_at) / RFU DUSP10 (11751237_a_at) / Fold change /veh DUSP10 (11751237_a_at) / RFU ID3 (11757404_x_at) / Fold change /veh ID3 (11757404_x_at) / RFU PLEKHG5 (11737974_s_at) / Fold change /veh PLEKHG5 (11737974_s_at) / RFU LRRC4B (11730491_at) / Fold change /veh LRRC4B (11730491_at) / RFU GIMAP4 (11747438_a_at) / Fold change /veh GIMAP4 (11747438_a_at) / RFU KRT8 (11758183_x_at) / Fold change /veh KRT8 (11758183_x_at) / RFU CNN1 (11734310_a_at) / Fold change /veh CNN1 (11734310_a_at) / RFU VPS37D (11726825_at) / Fold change /veh VPS37D (11726825_at) / RFU C10orf10 (11716522_x_at) / Fold change /veh C10orf10 (11716522_x_at) / RFU KIR2DL2 /// KIR2DL4 /// KIR2DL5A /// KIR2DL5B /// KIR2DS1 /// KIR2DS2 /// KIR2DS3 /// KIR2DS4 /// KIR3DL3 /// KIR3DL3 /// KIR3DS1 (11738374_at) / Fold change /veh KIR2DL2 /// KIR2DL4 /// KIR2DL5A /// KIR2DL5B /// KIR2DS1 /// KIR2DS2 /// KIR2DS3 /// KIR2DS4 /// KIR3DL3 /// KIR3DL3 /// KIR3DS1 (11738374_at) / RFU C1QL1 (11718748_at) / Fold change /veh C1QL1 (11718748_at) / RFU TMPRSS4 (11747572_a_at) / Fold change /veh TMPRSS4 (11747572_a_at) / RFU HAMP (11756126_x_at) / Fold change /veh HAMP (11756126_x_at) / RFU RNFT2 (11725882_a_at) / Fold change /veh RNFT2 (11725882_a_at) / RFU NR4A2 (11747474_a_at) / Fold change /veh NR4A2 (11747474_a_at) / RFU ABCC12 (11746883_a_at) / Fold change /veh ABCC12 (11746883_a_at) / RFU TMEM136 (11760407_x_at) / Fold change /veh TMEM136 (11760407_x_at) / RFU CLDN22 /// WWC2 (11732394_at) / Fold change /veh CLDN22 /// WWC2 (11732394_at) / RFU HLA-DPB1 (11760878_x_at) / Fold change /veh HLA-DPB1 (11760878_x_at) / RFU SPINT1 (11716480_a_at) / Fold change /veh SPINT1 (11716480_a_at) / RFU GAP43 (11754022_s_at) / Fold change /veh GAP43 (11754022_s_at) / RFU A4GNT (11735810_at) / Fold change /veh A4GNT (11735810_at) / RFU PRB3 (11715151_x_at) / Fold change /veh PRB3 (11715151_x_at) / RFU TUBB4B (11761932_at) / Fold change /veh TUBB4B (11761932_at) / RFU CAPN14 (11732068_a_at) / Fold change /veh CAPN14 (11732068_a_at) / RFU TMCC2 (11721928_a_at) / Fold change /veh TMCC2 (11721928_a_at) / RFU IRGQ (11745062_a_at) / Fold change /veh IRGQ (11745062_a_at) / RFU FAM174B (11720279_a_at) / Fold change /veh FAM174B (11720279_a_at) / RFU TMPRSS4 (11748680_a_at) / Fold change /veh TMPRSS4 (11748680_a_at) / RFU FAM212B (11763350_a_at) / Fold change /veh FAM212B (11763350_a_at) / RFU PLEKHG5 (11743358_a_at) / Fold change /veh PLEKHG5 (11743358_a_at) / RFU ZSCAN30 (11745921_a_at) / Fold change /veh ZSCAN30 (11745921_a_at) / RFU CMKLR1 (11741424_a_at) / Fold change /veh CMKLR1 (11741424_a_at) / RFU LOC101060620 /// MAPK8IP1 (11723275_at) / Fold change /veh LOC101060620 /// MAPK8IP1 (11723275_at) / RFU SPTSSB (11747773_x_at) / Fold change /veh SPTSSB (11747773_x_at) / RFU PRSS12 (11739890_at) / Fold change /veh PRSS12 (11739890_at) / RFU BIN1 (11741810_x_at) / Fold change /veh BIN1 (11741810_x_at) / RFU WNT11 (11732464_a_at) / Fold change /veh WNT11 (11732464_a_at) / RFU C10orf10 (11716521_a_at) / Fold change /veh C10orf10 (11716521_a_at) / RFU C5orf56 (11738089_at) / Fold change /veh C5orf56 (11738089_at) / RFU CYB561 (11721691_x_at) / Fold change /veh CYB561 (11721691_x_at) / RFU ANKRD19P (11752326_a_at) / Fold change /veh ANKRD19P (11752326_a_at) / RFU OR2T12 /// OR2T33 /// OR2T8 (11738714_s_at) / Fold change /veh OR2T12 /// OR2T33 /// OR2T8 (11738714_s_at) / RFU VCAN (11748164_a_at) / Fold change /veh VCAN (11748164_a_at) / RFU JSRP1 (11732532_at) / Fold change /veh JSRP1 (11732532_at) / RFU KRTAP10-11 (11738290_x_at) / Fold change /veh KRTAP10-11 (11738290_x_at) / RFU MYO3A (11730013_a_at) / Fold change /veh MYO3A (11730013_a_at) / RFU EBF3 (11725865_a_at) / Fold change /veh EBF3 (11725865_a_at) / RFU CAMK2N1 (11719241_x_at) / Fold change /veh CAMK2N1 (11719241_x_at) / RFU C5orf56 (11738088_a_at) / Fold change /veh C5orf56 (11738088_a_at) / RFU OLFML3 (11715873_a_at) / Fold change /veh OLFML3 (11715873_a_at) / RFU LOC100653217 /// NTM (11731650_a_at) / Fold change /veh LOC100653217 /// NTM (11731650_a_at) / RFU MAPK11 (11762145_a_at) / Fold change /veh MAPK11 (11762145_a_at) / RFU FIZ1 (11724087_x_at) / Fold change /veh FIZ1 (11724087_x_at) / RFU OASL (11726364_x_at) / Fold change /veh OASL (11726364_x_at) / RFU SOX15 (11748057_x_at) / Fold change /veh SOX15 (11748057_x_at) / RFU CD79A (11719716_a_at) / Fold change /veh CD79A (11719716_a_at) / RFU HIST1H1D (11736915_at) / Fold change /veh HIST1H1D (11736915_at) / RFU CASKIN2 (11723855_a_at) / Fold change /veh CASKIN2 (11723855_a_at) / RFU LOC730098 (11760151_x_at) / Fold change /veh LOC730098 (11760151_x_at) / RFU OR4N2 (11742367_at) / Fold change /veh OR4N2 (11742367_at) / RFU PRRT2 (11749266_a_at) / Fold change /veh PRRT2 (11749266_a_at) / RFU SNX32 (11753110_a_at) / Fold change /veh SNX32 (11753110_a_at) / RFU CDHR5 (11726645_a_at) / Fold change /veh CDHR5 (11726645_a_at) / RFU RCAN1 (11760418_a_at) / Fold change /veh RCAN1 (11760418_a_at) / RFU FAM167A (11723789_a_at) / Fold change /veh FAM167A (11723789_a_at) / RFU FAM26E (11764081_at) / Fold change /veh FAM26E (11764081_at) / RFU ISYNA1 (11749810_s_at) / Fold change /veh ISYNA1 (11749810_s_at) / RFU ACY1 (11761880_at) / Fold change /veh ACY1 (11761880_at) / RFU 11764098_at / Fold change /veh 11764098_at / RFU SAMD14 (11745864_x_at) / Fold change /veh SAMD14 (11745864_x_at) / RFU NPB (11741838_a_at) / Fold change /veh NPB (11741838_a_at) / RFU TMPRSS6 (11731388_a_at) / Fold change /veh TMPRSS6 (11731388_a_at) / RFU KRTAP10-2 (11738614_at) / Fold change /veh KRTAP10-2 (11738614_at) / RFU ARHGAP8 /// PRR5-ARHGAP8 (11727945_x_at) / Fold change /veh ARHGAP8 /// PRR5-ARHGAP8 (11727945_x_at) / RFU KRTAP5-7 /// NADSYN1 (11734609_at) / Fold change /veh KRTAP5-7 /// NADSYN1 (11734609_at) / RFU RASL12 (11751679_a_at) / Fold change /veh RASL12 (11751679_a_at) / RFU CDKN2B (11736163_a_at) / Fold change /veh CDKN2B (11736163_a_at) / RFU PRF1 (11729649_at) / Fold change /veh PRF1 (11729649_at) / RFU, ZNF638 /// ZNF638-IT1 / Fold change vs veh, ZNF638 /// ZNF638-IT1 / RFU, PANK3 / Fold change vs veh, PANK3 / RFU, SH3YL1 / Fold change vs veh, SH3YL1 / RFU, ZEB2 / Fold change vs veh, ZEB2 / RFU, NRIP1 / Fold change vs veh, NRIP1 / RFU, PTTG1IP / Fold change vs veh, PTTG1IP / RFU, CAPN2 / Fold change vs veh, CAPN2 / RFU, MED14 / Fold change vs veh, MED14 / RFU, SNORA58 / Fold change vs veh, SNORA58 / RFU, C1orf63 / Fold change vs veh, C1orf63 / RFU, LRRFIP1 / Fold change vs veh, LRRFIP1 / RFU, NDUFAF7 / Fold change vs veh, NDUFAF7 / RFU, SLC12A2 / Fold change vs veh, SLC12A2 / RFU, IBTK / Fold change vs veh, IBTK / RFU, ESF1 / Fold change vs veh, ESF1 / Fold change vs veh, TMEM50B / RFU, TAOK1 / Fold change vs veh, TAOK1 / RFU, ACBD3 / Fold change vs veh, ACBD3 / RFU, TMA16 / Fold change vs veh, TMA16 / RFU, RWDD3 / Fold change vs veh, RWDD3 / RFU, BCAT1 / Fold change vs veh, BCAT1 / RFU, EDEM3 / Fold change vs veh, EDEM3 / RFU, TMEM33 / Fold change vs veh, TMEM33 / RFU, WDR75 / Fold change vs veh, WDR75 / RFU, AHCTF1 / Fold change vs veh, AHCTF1 / RFU, TFRC / Fold change vs veh, TFRC / RFU, ZDHHC17 / Fold change vs veh, ZDHHC17 / RFU, NOM1 / Fold change vs veh, NOM1 / RFU, ARL8B / Fold change vs veh, ARL8B / RFU, ZBTB11 / Fold change vs veh, ZBTB11 / RFU, TAMM41 / Fold change vs veh, TAMM41 / RFU, KIAA1704 /// LOC100996395 / Fold change vs veh, KIAA1704 /// LOC100996395 / RFU, ING1 / Fold change vs veh, ING1 / RFU, TRMT61B / Fold change vs veh, TRMT61B / RFU, FUBP3 / Fold change vs veh, FUBP3 / RFU, TP53 / Fold change vs veh, TP53 / RFU, TNKS2 / Fold change vs veh, TNKS2 / RFU, ZFP14 / Fold change vs veh, ZFP14 / RFU, ACTR2 / Fold change vs veh, ACTR2 / RFU, PPP3R1 / Fold change vs veh, PPP3R1 / RFU, PIK3R1 / Fold change vs veh, PIK3R1 / RFU, HNRNPA1 / Fold change vs veh, HNRNPA1 / RFU, RNF170 / Fold change vs veh, RNF170 / RFU, ZNF28 / Fold change vs veh, ZNF28 / RFU, RNGTT / Fold change vs veh, RNGTT / RFU, OGT / Fold change vs veh, OGT / RFU, BRD1 / Fold change vs veh, BRD1 / RFU, MARS / Fold change vs veh, MARS / RFU, ZNF655 / Fold change vs veh, ZNF655 / RFU, FAHD1 / Fold change vs veh, FAHD1 / RFU, BDP1 / Fold change vs veh, BDP1 / RFU, LRRCC1 / Fold change vs veh, LRRCC1 / RFU, ARID1A / Fold change vs veh, ARID1A / RFU, ZNF146 / Fold change vs veh, ZNF146 / RFU, ZNF330 / Fold change vs veh, ZNF330 / RFU, GPN3 / Fold change vs veh, GPN3 / RFU, C9orf123 / Fold change vs veh, C9orf123 / RFU, N4BP2L2 / Fold change vs veh, N4BP2L2 / RFU, ARFIP1 / Fold change vs veh, ARFIP1 / RFU, FAM179B / Fold change vs veh, FAM179B / RFU, BCL10 / Fold change vs veh, BCL10 / RFU, UHRF1BP1L / Fold change vs veh, UHRF1BP1L / RFU, BET1 / Fold change vs veh, BET1 / RFU, CNOT2 / Fold change vs veh, CNOT2 / RFU, ZNF268 / Fold change vs veh, ZNF268 / Fold change vs veh, ZNF507 / RFU, DGCR2 / Fold change vs veh, DGCR2 / RFU, WDSUB1 / Fold change vs veh, WDSUB1 / Fold change vs veh, HSP90B1 /// MIR3652 / RFU, ADSS / Fold change vs veh, ADSS / RFU, GK / Fold change vs veh, GK / RFU, ZNF148 / Fold change vs veh, ZNF148 / RFU, TAF9 / Fold change vs veh, TAF9 / RFU, SLC1A5 / Fold change vs veh, SLC1A5 / RFU, SLMO2 / Fold change vs veh, SLMO2 / RFU, ABCC4 / Fold change vs veh, ABCC4 / RFU, LOC101060439 /// RAP1B / Fold change vs veh, LOC101060439 /// RAP1B / RFU, RFX7 / Fold change vs veh, RFX7 / RFU, GTPBP10 / Fold change vs veh, GTPBP10 / RFU, CNEP1R1 / Fold change vs veh, CNEP1R1 / RFU, BIVM-ERCC5 /// ERCC5 / Fold change vs veh, BIVM-ERCC5 /// ERCC5 / RFU, ILF3 / Fold change vs veh, ILF3 / RFU 11762660_at / Fold change /veh 11762660_at / RFU VCAN (11757783_s_at) / Fold change /veh VCAN (11757783_s_at) / RFU DDX43 (11728927_at) / Fold change /veh DDX43 (11728927_at) / RFU KRT8 (11758188_x_at) / Fold change /veh KRT8 (11758188_x_at) / RFU NKD1 (11759106_at) / Fold change /veh NKD1 (11759106_at) / RFU SRD5A1 (11742802_a_at) / Fold change /veh SRD5A1 (11742802_a_at) / RFU TPSAB1 /// TPSB2 (11721975_s_at) / Fold change /veh TPSAB1 /// TPSB2 (11721975_s_at) / RFU GSTM3 (11746129_a_at) / Fold change /veh GSTM3 (11746129_a_at) / RFU IL23R (11737362_x_at) / Fold change /veh IL23R (11737362_x_at) / RFU TMEM51 (11727254_a_at) / Fold change /veh TMEM51 (11727254_a_at) / RFU PIWIL2 (11732686_x_at) / Fold change /veh PIWIL2 (11732686_x_at) / RFU ORM1 (11744905_x_at) / Fold change /veh ORM1 (11744905_x_at) / RFU CCDC152 (11743942_at) / Fold change /veh CCDC152 (11743942_at) / RFU ECM1 (11717891_a_at) / Fold change /veh ECM1 (11717891_a_at) / RFU IL23R (11748794_a_at) / Fold change /veh IL23R (11748794_a_at) / RFU TNFAIP8L3 (11732012_x_at) / Fold change /veh TNFAIP8L3 (11732012_x_at) / RFU MBOAT4 (11741988_at) / Fold change /veh MBOAT4 (11741988_at) / RFU 11764193_at / Fold change /veh 11764193_at / RFU TMEM53 (11763286_at) / Fold change /veh TMEM53 (11763286_at) / RFU MAGEB2 (11727129_at) / Fold change /veh MAGEB2 (11727129_at) / RFU TMEM200A (11744735_a_at) / Fold change /veh TMEM200A (11744735_a_at) / RFU CCDC152 (11751479_a_at) / Fold change /veh CCDC152 (11751479_a_at) / RFU FAM211A (11726209_a_at) / Fold change /veh FAM211A (11726209_a_at) / RFU RGS16 (11746705_a_at) / Fold change /veh RGS16 (11746705_a_at) / RFU VCAN (11755009_s_at) / Fold change /veh VCAN (11755009_s_at) / RFU RHOB (11743442_s_at) / Fold change /veh RHOB (11743442_s_at) / RFU RGS16 (11720943_a_at) / Fold change /veh RGS16 (11720943_a_at) / RFU RGS16 (11720944_at) / Fold change /veh RGS16 (11720944_at) / RFU, VPS4B / Fold change vs veh, VPS4B / RFU, CREB1 / Fold change vs veh, CREB1 / RFU, DNAJC13 / Fold change vs veh, DNAJC13 / RFU, GNAQ / Fold change vs veh, GNAQ / RFU, CDK5R1 / Fold change vs veh, CDK5R1 / RFU, ZRANB3 / Fold change vs veh, ZRANB3 / RFU, CUL4A / Fold change vs veh, CUL4A / RFU, CCNY / Fold change vs veh, CCNY / RFU, UFL1 / Fold change vs veh, UFL1 / RFU, COG3 / Fold change vs veh, COG3 / RFU, DIAPH2 / Fold change vs veh, DIAPH2 / RFU, SKA2 / Fold change vs veh, SKA2 / RFU, AFF3 / Fold change vs veh, AFF3 / RFU, LMF1 / Fold change vs veh, LMF1 / RFU, IPO11 / Fold change vs veh, IPO11 / RFU, DFFB / Fold change vs veh, DFFB / RFU, FOXP1 / Fold change vs veh, FOXP1 / RFU, CARD8 / Fold change vs veh, CARD8 / RFU, STRN3 / Fold change vs veh, STRN3 / RFU, ADK / Fold change vs veh, ADK / RFU, RASSF2 / Fold change vs veh, RASSF2 / RFU, WIPF1 / Fold change vs veh, WIPF1 / RFU, LARP1B / Fold change vs veh, LARP1B / RFU, RASA1 / Fold change vs veh, RASA1 / RFU, RB1 / Fold change vs veh, RB1 / RFU, PPFIA1 / Fold change vs veh, PPFIA1 / RFU, MAT2A / Fold change vs veh, MAT2A / RFU, CCT5 / Fold change vs veh, CCT5 / RFU, WDR92 / Fold change vs veh, WDR92 / RFU, CUX1 / Fold change vs veh, CUX1 / RFU, TTC7A / Fold change vs veh, TTC7A / RFU, TMEM135 / Fold change vs veh, TMEM135 / RFU, DEPTOR / Fold change vs veh, DEPTOR / RFU, CPM / Fold change vs veh, CPM / RFU, DNAJB6 / Fold change vs veh, DNAJB6 / RFU, CACNA2D3 / Fold change vs veh, CACNA2D3 / RFU, DTX4 / Fold change vs veh, DTX4 / RFU, TFCP2 / Fold change vs veh, TFCP2 / RFU, GMCL1 /// GMCL1P1 / Fold change vs veh, GMCL1 /// GMCL1P1 / RFU, AEBP2 / Fold change vs veh, AEBP2 / RFU, SNHG1 /// SNORD22 /// SNORD25 /// SNORD26 /// SNORD27 /// SNORD28 /// SNORD29 /// SNORD31 / Fold change vs veh, SNHG1 /// SNORD22 /// SNORD25 /// SNORD26 /// SNORD27 /// SNORD28 /// SNORD29 /// SNORD31 / Fold change (Aza/veh), C12orf56 (ProbeSet 11735607_a_at) / Fold change (ACY-1035/veh), C12orf56 (ProbeSet 11735607_a_at) / Fold change (Aza/veh), FGFR1OP (ProbeSet 11751329_s_at) / Fold change (ACY-1035/veh), FGFR1OP (ProbeSet 11751329_s_at) / Fold change (Aza/veh), VPS36 (ProbeSet 11739960_a_at) / Fold change (ACY-1035/veh), VPS36 (ProbeSet 11739960_a_at) / RFU SYPL1 (11715823_x_at) / Fold change /veh SYPL1 (11715823_x_at) / RFU IGFBP7 (11715501_s_at) / Fold change /veh IGFBP7 (11715501_s_at) / RFU REEP3 (11722064_at) / Fold change /veh REEP3 (11722064_at) / RFU IGLL1 (11728026_x_at) / Fold change /veh IGLL1 (11728026_x_at): dose or concentration left out as unconfirmed. The note with it: ProbeSet 11733831_s_at; LIST D.

`Nc1ncn([C@@H]2O[C@H](CO)[C@@H](O)[C@H]2O)c(=O)n1` [azacitidine]: the “RFU, GMCL1 /// GMCL1P1” value is on record as 32.38 RFU.
